Assay results taken from patent US11135234B2, “Effective aminoglycoside antibiotic for multidrug-resistant bacteria” (MICROBIAL CHEMISTRY RESEARCH FOUNDATION, priority 2015, dated 2021).
≈ marks a conversion by molar mass, not a printed value.

Tests used:
P. aeruginosa MSC01035 = assay: MIC, agar plate dilution method, P. aeruginosa MSC01035; format: cell-based, Pseudomonas aeruginosa; settings: P. aeruginosa MSC01035, ABK-resistant; for MIC: Pseudomonas aeruginosa, read-out: minimal inhibitory concentration (MIC)
Method: (§1) As for the representative compounds of a new aminoglycoside antibiotic of the present invention described in Examples, the minimal inhibitory concentration (MIC, μg/mL) was measured for various assay strains of bacteria using an agar plate dilution method in accordance with the method described in the Japan Society of Chemotherapy.

P. aeruginosa PAO1/GN315 = assay: MIC, agar plate dilution method, P. aeruginosa PAO1/GN315; format: cell-based, Pseudomonas aeruginosa; settings: for minimal inhibitory concentration (MIC): P. aeruginosa PAO1/GN315, AMK-resistant; for MIC: Pseudomonas aeruginosa, read-out: minimal inhibitory concentration (MIC), P. aeruginosa PAO1/GN315, AMK-resistant
Method: as §1

[1] = system: K. pneumoniae ATCC BAA-1705; assay: MIC, agar plate dilution method, K. pneumoniae ATCC BAA-1705; format: cell-based, Klebsiella pneumoniae; settings: for minimal inhibitory concentration (MIC): K. pneumoniae ATCC BAA-1705, KPC-producing strain; for MIC: Klebsiella pneumoniae, ATCCBAA1705, K. pneumoniae ATCC BAA-1705, KPC-producing strain, read-out: minimal inhibitory concentration (MIC)
Method: as §1

S. aureus RN4220/pMS520 = assay: MIC, agar plate dilution method, S. aureus RN4220/pMS520; format: cell-based, Staphylococcus aureus; settings: for minimal inhibitory concentration (MIC): S. aureus RN4220/pMS520, MRSA; for MIC: Staphylococcus aureus, MRSA, read-out: minimal inhibitory concentration (MIC), S. aureus RN4220/pMS520, MRSA
Method: as §1

S. marcescens GN6944 = assay: MIC, agar plate dilution method, S. marcescens GN6944; format: cell-based, Serratia marcescens; settings: S. marcescens GN6944, GM-resistant; for MIC: Serratia marcescens, read-out: minimal inhibitory concentration (MIC)
Method: as §1

S. aureus MF490 = assay: MIC, agar plate dilution method, S. aureus MF490; format: cell-based, Staphylococcus aureus; settings: for minimal inhibitory concentration (MIC): S. aureus MF490, MRSA; for MIC: Staphylococcus aureus, MRSA, read-out: minimal inhibitory concentration (MIC)
Method: as §1

[2] = system: A. baumannii ATCC BAA-1710; assay: MIC, agar plate dilution method, A. baumannii ATCC BAA-1710; format: cell-based, Acinetobacter baumannii; settings: for minimal inhibitory concentration (MIC): A. baumannii ATCC BAA-1710, MDRA; for MIC: Acinetobacter baumannii, ATCCBAA1710, A. baumannii ATCC BAA-1710, MDRA, read-out: minimal inhibitory concentration (MIC)
Method: as §1

E. faecium ATCC19434 = assay: MIC, agar plate dilution method, E. faecium ATCC19434; format: cell-based, Enterococcus faecium; settings: for minimal inhibitory concentration (MIC): E. faecium ATCC19434; for MIC: Enterococcus faecium, ATCC19434, E. faecium ATCC19434, read-out: minimal inhibitory concentration (MIC)
Method: as §1

[3] = system: K. pneumoniae ATCC BAA-2146; assay: MIC, agar plate dilution method, K. pneumoniae ATCC BAA-2146; format: cell-based, Klebsiella pneumoniae; settings: for minimal inhibitory concentration (MIC): K. pneumoniae ATCC BAA-2146, NDM-producing strain; for MIC: Klebsiella pneumoniae, ATCCBAA2146, K. pneumoniae ATCC BAA-2146, NDM-producing strain, read-out: minimal inhibitory concentration (MIC)
Method: as §1

P. aeruginosa MSC17707 = assay: MIC, agar plate dilution method, P. aeruginosa MSC17707; format: cell-based, Pseudomonas aeruginosa; settings: for minimal inhibitory concentration (MIC): P. aeruginosa MSC17707, AMK-resistant; for MIC: Pseudomonas aeruginosa, MSC17707, P. aeruginosa MSC17707, AMK-resistant, read-out: minimal inhibitory concentration (MIC)
Method: as §1

S. marcescens TH-0447 = assay: MIC, agar plate dilution method, S. marcescens TH-0447; format: cell-based, Serratia marcescens; settings: for minimal inhibitory concentration (MIC): S. marcescens TH-0447, AMK-resistant; for MIC: Serratia marcescens, TH0447, S. marcescens TH-0447, AMK-resistant, read-out: minimal inhibitory concentration (MIC)
Method: as §1

E. coli JM109/pMW218 = assay: MIC, agar plate dilution method, E. coli JM109/pMW218; format: cell-based, Escherichia coli; settings: for minimal inhibitory concentration (MIC): E. coli JM109/pMW218, Sensitive bacterium; for MIC: Escherichia coli, JM109/PMW218, E. coli JM109/pMW218, Sensitive bacterium, read-out: minimal inhibitory concentration (MIC)
Method: as §1

P. aeruginosa PAO1 = assay: MIC, agar plate dilution method, P. aeruginosa PAO1; format: cell-based, Pseudomonas aeruginosa; settings: for minimal inhibitory concentration (MIC): P. aeruginosa PAO1, Sensitive bacterium; for MIC: Pseudomonas aeruginosa, PAO1, P. aeruginosa PAO1, Sensitive bacterium, read-out: minimal inhibitory concentration (MIC)
Method: as §1

S. aureus RN4220 = assay: MIC, agar plate dilution method, S. aureus RN4220; format: cell-based, Staphylococcus aureus; settings: for minimal inhibitory concentration (MIC): S. aureus RN4220, Sensitive bacterium; for MIC: Staphylococcus aureus, RN4220, S. aureus RN4220, Sensitive bacterium, read-out: minimal inhibitory concentration (MIC)
Method: as §1

Row | SMILES | minimal inhibitory concentration (MIC) (P. aeruginosa MSC01035) | minimal inhibitory concentration (MIC) (P. aeruginosa PAO1/GN315) | minimal inhibitory concentration (MIC) [1] | minimal inhibitory concentration (MIC) (S. aureus RN4220/pMS520) | minimal inhibitory concentration (MIC) (S. marcescens GN6944) | minimal inhibitory concentration (MIC) (S. aureus MF490) | minimal inhibitory concentration (MIC) [2] | minimal inhibitory concentration (MIC) (E. faecium ATCC19434) | minimal inhibitory concentration (MIC) [3] | minimal inhibitory concentration (MIC) (P. aeruginosa MSC17707) | minimal inhibitory concentration (MIC) (S. marcescens TH-0447) | minimal inhibitory concentration (MIC) (E. coli JM109/pMW218) | minimal inhibitory concentration (MIC) (P. aeruginosa PAO1) | minimal inhibitory concentration (MIC) (S. aureus RN4220) | MIC (P. aeruginosa MSC01035) | MIC (P. aeruginosa PAO1/GN315) | MIC [1] | MIC (S. aureus RN4220/pMS520) | MIC (S. marcescens GN6944) | MIC (S. aureus MF490) | other results
1 | CNC1C(OC2OC(CO)C(N)C(O)C2O)OC2CC(N)C(OC3C(N)CC(N)C(O)C3N)OC2C1O (stereo not shown) [Compound D2, 5-amino-5-deoxy-5-epiapramycin] | 4 µg/mL (≈ 7.43 µM) | 4 µg/mL (≈ 7.43 µM) | 2 µg/mL (≈ 3.71 µM) | 4 µg/mL (≈ 7.43 µM) | 4 µg/mL (≈ 7.43 µM) | 8 µg/mL (≈ 14.9 µM) | 8 µg/mL (≈ 14.9 µM) | 32 µg/mL (≈ 59.4 µM) | 2 µg/mL (≈ 3.71 µM) | 8 µg/mL (≈ 14.9 µM) | 8 µg/mL (≈ 14.9 µM) | 2 µg/mL (≈ 3.71 µM) | 4 µg/mL (≈ 7.43 µM) | 4 µg/mL (≈ 7.43 µM) |  |  |  |  |  |  | 
2 | CN[C@@H]1[C@@H](O[C@H]2O[C@H](CO)[C@@H](N)[C@H](O)[C@H]2O)O[C@H]2C[C@@H](N)[C@@H](O[C@H]3[C@H](N)[C@@H](O)[C@H](N)C[C@@H]3N)O[C@@H]2[C@@H]1O [Compound E3, 5-amino-5-deoxyapramycin] | 16 µg/mL (≈ 29.7 µM) | 16 µg/mL (≈ 29.7 µM) | 4 µg/mL (≈ 7.43 µM) | 8 µg/mL (≈ 14.9 µM) | 16 µg/mL (≈ 29.7 µM) | 16 µg/mL (≈ 29.7 µM) | 16 µg/mL (≈ 29.7 µM) | 64 µg/mL (≈ 119 µM) | 4 µg/mL (≈ 7.43 µM) | 16 µg/mL (≈ 29.7 µM) | 16 µg/mL (≈ 29.7 µM) | 4 µg/mL (≈ 7.43 µM) | 16 µg/mL (≈ 29.7 µM) | 8 µg/mL (≈ 14.9 µM) |  |  |  |  |  |  | 
3 | CN[C@@H]1[C@@H](O[C@H]2O[C@H](CO)[C@@H](N)[C@H](O)[C@H]2O)O[C@H]2C[C@@H](N)[C@@H](O[C@H]3[C@@H](F)[C@H](N)[C@H](N)C[C@@H]3N)O[C@@H]2[C@@H]1O [Compound F3, 6-amino-5,6-dideoxy-5,6-diepi-5-fluoroapramycin] | 32 µg/mL (≈ 59.2 µM) | 16 µg/mL (≈ 29.6 µM) | 4 µg/mL (≈ 7.4 µM) | 8 µg/mL (≈ 14.8 µM) | 16 µg/mL (≈ 29.6 µM) | 32 µg/mL (≈ 59.2 µM) | 16 µg/mL (≈ 29.6 µM) | 64 µg/mL (≈ 118 µM) | 4 µg/mL (≈ 7.4 µM) | 16 µg/mL (≈ 29.6 µM) | 16 µg/mL (≈ 29.6 µM) | 8 µg/mL (≈ 14.8 µM) | 16 µg/mL (≈ 29.6 µM) | 8 µg/mL (≈ 14.8 µM) |  |  |  |  |  |  | 
4 | CNC1C(O[C@H]2OC(CO)[C@@H](N)[C@H](O)C2N)O[C@H]2CC(N)[C@@H](O[C@@H]3C(N)C[C@@H](N)C(O)[C@H]3O)OC2C1O (stereo partly shown) [Compound G7, 2″-amino-2″-deoxy-2″,3″-diepiapramycin] |  |  |  |  |  |  |  |  |  |  |  |  |  |  | 16 µg/mL (≈ 29.7 µM) | 8 µg/mL (≈ 14.9 µM) | 2 µg/mL (≈ 3.71 µM) | 8 µg/mL (≈ 14.9 µM) | 8 µg/mL (≈ 14.9 µM) | 16 µg/mL (≈ 29.7 µM) | MIC [2]: 8 µg/mL (≈ 14.9 µM); MIC (E. faecium ATCC19434): 16 µg/mL (≈ 29.7 µM); MIC [3]: 4 µg/mL (≈ 7.43 µM); MIC (P. aeruginosa MSC17707): 8 µg/mL (≈ 14.9 µM); MIC (S. marcescens TH-0447): 8 µg/mL (≈ 14.9 µM); MIC (E. coli JM109/pMW218): 1 µg/mL (≈ 1.86 µM); MIC (P. aeruginosa PAO1): 8 µg/mL (≈ 14.9 µM); MIC (S. aureus RN4220): 4 µg/mL (≈ 7.43 µM)
5 | CNC1C(O[C@H]2OC(CO)[C@@H](N)[C@H](N)C2O)O[C@H]2CC(N)[C@@H](O[C@@H]3C(N)C[C@@H](N)C(O)[C@H]3O)OC2C1O (stereo partly shown) [Compound G8, 3″-amino-3″-deoxyapramycin] |  |  |  |  |  |  |  |  |  |  |  |  |  |  | 16 µg/mL (≈ 29.7 µM) | 16 µg/mL (≈ 29.7 µM) | 4 µg/mL (≈ 7.43 µM) | 8 µg/mL (≈ 14.9 µM) | 16 µg/mL (≈ 29.7 µM) | 32 µg/mL (≈ 59.4 µM) | MIC [2]: 16 µg/mL (≈ 29.7 µM); MIC (E. faecium ATCC19434): 32 µg/mL (≈ 59.4 µM); MIC [3]: 4 µg/mL (≈ 7.43 µM); MIC (P. aeruginosa MSC17707): 16 µg/mL (≈ 29.7 µM); MIC (S. marcescens TH-0447): 16 µg/mL (≈ 29.7 µM); MIC (E. coli JM109/pMW218): 2 µg/mL (≈ 3.71 µM); MIC (P. aeruginosa PAO1): 8 µg/mL (≈ 14.9 µM); MIC (S. aureus RN4220): 8 µg/mL (≈ 14.9 µM)
